Results: paper PMC8820820, “Feasibility and safety of targeting mitochondria for cancer therapy – preclinical characterization of gamitrinib, a first-in-class, mitochondriaL-targeted small molecule Hsp90 inhibitor” (Cancer Biology & Therapy, 2022)
Values joined by “and” are separate entries in the source; they are usually repeats but may differ in a detail not shown here. Equal entries are not always repeated. “Also recorded” adds a separate entry of the source. Where two headings read alike, the source gives them in different places.

Columns and labels:
[1] = target: Nav1.5 (Homo sapiens, UniProt Q14524); test: Ion channel screening; assay type: cell-based; details: 10 µM, pulse 26
[2] = Gamitrinib pharmacokinetics in rat plasma, single IV dose; assay type: in vivo, Sprague-Dawley rats
Description: Sprague-Dawley rats (n = 3) were administered with a single intravenous (IV) dose of 1 mL Gamitrinib (5 mg/kg) formulated as described above without added microfluidization. Blood samples were collected via lateral tail vein using K2EDTA as an anticoagulant at 0.083, 0.25, 0.5, 1, 2, 4, and 24 h post-dose, chilled on ice, and centrifuged at 5000 rpm for 10 min. Aliquots (0.2 mL) of each plasma sample were stored frozen at −20°C. For analysis, 50 µL aliquots of the study samples were mixed with 50 µL of ACN/H2O (50:50), extracted by protein precipitation using ACN containing the internal standard Gamitrinib-d15 (100 ng/mL), and the aliquots of the supernatant were mixed with deionized water for Gamitrinib determination. Batch samples under analysis included a calibration curve, a matrix blank (blank rat plasma), a reagent blank, a control zero (blank rat plasma spiked with internal standard), and duplicate QC samples at three concentration levels (low, medium, and high) in addition to the study samples. Within each batch, the study samples were bracketed by calibration standards or QC samples. The lowest calibration standard served to evaluate system suitability at the beginning of each batch. […] Overall, the concentration of Gamitrinib was measured in 21 rat plasma samples in 1 analytical batch using LC-MS/MS data acquisition on a Shimadzu Nexera LC system coupled with an AB Sciex Triple Quad 5500 mass spectrometer. Chromatograms were integrated using Analyst 1.6.2 software. A weighted (1/x^2, x = concentration) linear regression was used to generate the calibration curve for Gamitrinib. […] The mean, standard deviation, precision, accuracy, and assay variability were calculated using Microsoft Excel.

[3] = parameters: species or system beagle dogs; details: dog, in vivo
Description: Eighteen male and female (5–6 mo old) purebred beagle dogs (Cumberland, VA) were acclimated for 47 d (20°C to 26°C, relative humidity 30–70%, 10 or greater air changes/h, and a 12-h light/dark cycle) prior to study initiation. Animals were given water ad libitum and Certified Canine Diet #5007 (PMI Nutrition International Certified LabDiet®) for 4 to 5 h each day. At study initiation, animal body weights ranged from 8.6 to 11.5 kg for males and 6.0 to 9.4 kg for females. At least 1 week prior to initiation of dosing, animals were fasted overnight, anesthetized, and a catheter attached to a subcutaneous vascular access port was surgically implanted into a jugular vein. Animals were acclimated to infusion jackets prior to catheter implantation surgery. Animals were infused with sterile saline at a dose rate of 5 mL/h when the vascular access ports were accessed and when animals were connected to the infusion system (except when dosed with the test or vehicle control article). The patency of each catheter was checked as needed. Prednisolone tablets were administered orally at 2 mg/kg the night prior to dosing. Diphenhydramine (5 mg/kg; IM injection 0.1 mL/kg, 50 mg/mL) was administered prior to dosing and post the start of infusion (d 1 only). Male and female dogs received dose levels of Gamitrinib of 1.25, 3.33 and 6.25 mg/kg/dose formulated as indicated above during a 1 h infusion on d 1, 8, 11, 15, 18, 22, 25, 29, 32, and 36 at a volume of 2 mL/kg. The vehicle control was as above. […] Dosing was stopped, and 23 of 24 animals were administered additional diphenhydramine, 11 were administered Flunixin meglumine and buprenorphine, and 6 were administered acepromazine. Symptoms subsided in all animals after completion of these interventions. As a result of these observations, the polysorbate levels, which were increased from 0.025% (w/v) to 0.125% (w/v) to minimize precipitation, were returned to the original concentrations; 2 mg/kg prednisone was administered orally the night prior to dosing; and the diphenhydramine pretreatment dose was updated to 5 mg/kg 15 to 30 min prior to dosing. Detailed observations were conducted for each animal up to seven times during the predose phase, prior to dosing on d 1, 8, 15, 22, 29, and 36 of the dosing phase, and on d 1, 7, and 14 of the recovery phase. Blood samples (1 mL) were collected via the cephalic vein 5, 15, and 30 min and 1, 4, 8, and 24 h post the end of infusion on d 8 and 36 of the dosing phase. Formalin-fixed and paraffin-embedded tissue samples collected at the end of the study (d 39) were processed for histologic examination.

[4] = system: NCI 60 cell-line screen; parameters: method as in PMID 20876793, PMID 21285984; details: read-out: IC50, anticancer activity, cited from earlier work
[5] = Phase I, cytochrome P450-mediated human liver microsome metabolism; details: 0.5 µM, human liver microsomes

Chain of Nav1.5 (Q14524 whole entry): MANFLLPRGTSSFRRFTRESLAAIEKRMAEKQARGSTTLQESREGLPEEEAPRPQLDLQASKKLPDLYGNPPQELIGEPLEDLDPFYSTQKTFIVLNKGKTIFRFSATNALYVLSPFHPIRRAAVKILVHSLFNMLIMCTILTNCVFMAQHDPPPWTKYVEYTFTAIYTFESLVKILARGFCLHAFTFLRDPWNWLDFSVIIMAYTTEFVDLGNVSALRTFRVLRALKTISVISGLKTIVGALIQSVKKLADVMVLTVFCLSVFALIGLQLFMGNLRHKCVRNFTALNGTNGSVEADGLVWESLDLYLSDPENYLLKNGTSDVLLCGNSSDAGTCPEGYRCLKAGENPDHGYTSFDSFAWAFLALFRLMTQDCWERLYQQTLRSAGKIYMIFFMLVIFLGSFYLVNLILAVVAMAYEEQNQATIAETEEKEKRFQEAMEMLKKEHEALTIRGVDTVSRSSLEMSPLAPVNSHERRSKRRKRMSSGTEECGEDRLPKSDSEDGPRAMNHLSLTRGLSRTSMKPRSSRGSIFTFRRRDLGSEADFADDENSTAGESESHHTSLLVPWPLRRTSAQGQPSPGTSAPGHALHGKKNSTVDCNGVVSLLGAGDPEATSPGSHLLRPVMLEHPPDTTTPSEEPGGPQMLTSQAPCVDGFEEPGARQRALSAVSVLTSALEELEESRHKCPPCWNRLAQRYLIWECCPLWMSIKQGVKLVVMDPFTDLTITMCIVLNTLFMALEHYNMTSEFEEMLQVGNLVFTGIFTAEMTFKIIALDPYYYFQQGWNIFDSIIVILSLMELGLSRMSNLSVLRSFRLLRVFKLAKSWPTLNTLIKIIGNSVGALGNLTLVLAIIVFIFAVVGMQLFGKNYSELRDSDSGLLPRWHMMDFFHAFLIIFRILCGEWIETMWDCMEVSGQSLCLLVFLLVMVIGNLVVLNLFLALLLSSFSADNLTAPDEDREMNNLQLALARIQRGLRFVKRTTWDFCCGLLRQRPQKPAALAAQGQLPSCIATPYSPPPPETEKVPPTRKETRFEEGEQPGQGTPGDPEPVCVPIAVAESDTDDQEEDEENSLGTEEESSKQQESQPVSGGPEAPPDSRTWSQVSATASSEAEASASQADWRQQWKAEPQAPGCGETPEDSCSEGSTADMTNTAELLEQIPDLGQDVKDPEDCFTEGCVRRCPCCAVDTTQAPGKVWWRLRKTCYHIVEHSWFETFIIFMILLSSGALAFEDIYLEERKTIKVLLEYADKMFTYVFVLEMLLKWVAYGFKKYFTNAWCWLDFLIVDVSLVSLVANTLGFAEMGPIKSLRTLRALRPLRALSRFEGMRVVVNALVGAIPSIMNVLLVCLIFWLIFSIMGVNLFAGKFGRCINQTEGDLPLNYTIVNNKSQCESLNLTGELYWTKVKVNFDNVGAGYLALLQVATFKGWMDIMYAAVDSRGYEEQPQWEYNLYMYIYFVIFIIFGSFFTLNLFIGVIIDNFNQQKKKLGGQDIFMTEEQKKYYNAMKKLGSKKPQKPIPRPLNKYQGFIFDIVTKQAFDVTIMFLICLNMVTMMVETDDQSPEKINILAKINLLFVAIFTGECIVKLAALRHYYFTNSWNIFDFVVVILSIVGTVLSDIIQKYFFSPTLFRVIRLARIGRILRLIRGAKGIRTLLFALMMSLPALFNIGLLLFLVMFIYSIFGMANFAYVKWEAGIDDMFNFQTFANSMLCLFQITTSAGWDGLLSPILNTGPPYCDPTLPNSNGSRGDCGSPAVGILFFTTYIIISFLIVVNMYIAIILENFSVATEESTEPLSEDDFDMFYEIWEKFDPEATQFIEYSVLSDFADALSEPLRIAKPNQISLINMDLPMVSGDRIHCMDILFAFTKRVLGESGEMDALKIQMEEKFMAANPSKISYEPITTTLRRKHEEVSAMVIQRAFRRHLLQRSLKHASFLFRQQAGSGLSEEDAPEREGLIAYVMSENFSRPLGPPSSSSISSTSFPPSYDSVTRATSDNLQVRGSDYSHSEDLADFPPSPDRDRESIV

What does the source list for `COC1C=CC=C(C)C(=O)NC2=CC(=O)C(NCCCCCC[P+](c3ccccc3)(c3ccccc3)c3ccccc3)=C(CC(C)CC(OC)C(O)C(C)C=C(C)C1OC(N)=O)C2=O.F[P-](F)(F)(F)(F)F` (centres unmarked) [Gamitrinib]?
inhibition of Nav1.5 currents [1]: 22.3 ± 5.3%; AUCINF ([2]; 5 mg/kg IV, Mean (n = 3)): 976.002 ng·h/mL; AUClast (AUC0-t) ([2]; 5 mg/kg IV, Mean (n = 3)): 783.1 ± 71.3 ng·h/mL and 783.199 ng·h/mL; CL ([2]; 5 mg/kg IV, Mean (n = 3)): 85.6 ± 5.8 mL/min/kg and 85.65 ± 5.85 mL/min/kg and 85.656 mL/min/kg; MRT ([2]; 5 mg/kg IV, Mean (n = 3)): 5.492 h; Vss ([2]; 5 mg/kg IV, Mean (n = 3)): 65.471 L/kg; Vz ([2]; 5 mg/kg IV, Mean (n = 3)): 91.159 L/kg; t1/2 ([2]; 5 mg/kg IV, Mean (n = 3)): 12.2 ± 1.55 h and 12.250 h; AUCINF ([2]; 5 mg/kg IV, Rat 1): 1051.752 ng·h/mL; AUClast ([2]; 5 mg/kg IV, Rat 1): 851.441 ng·h/mL; CL ([2]; 5 mg/kg IV, Rat 1): 79.233 mL/min/kg; Cmax ([2]; 5 mg/kg IV, Rat 1): 1153.712 ng/mL; MRT ([2]; 5 mg/kg IV, Rat 1): 5.539 h; Vss ([2]; 5 mg/kg IV, Rat 1): 58.230 L/kg; Vz ([2]; 5 mg/kg IV, Rat 1): 79.715 L/kg; t1/2 ([2]; 5 mg/kg IV, Rat 1): 11.623 h; AUCINF ([2]; 5 mg/kg IV, Rat 2): 957.472 ng·h/mL; AUClast ([2]; 5 mg/kg IV, Rat 2): 789.045 ng·h/mL; CL ([2]; 5 mg/kg IV, Rat 2): 87.035 mL/min/kg; Cmax ([2]; 5 mg/kg IV, Rat 2): 829.668 ng/mL; MRT ([2]; 5 mg/kg IV, Rat 2): 5.411 h; Vss ([2]; 5 mg/kg IV, Rat 2): 60.052 L/kg; Vz ([2]; 5 mg/kg IV, Rat 2): 83.678 L/kg; t1/2 ([2]; 5 mg/kg IV, Rat 2): 11.107 h; AUCINF ([2]; 5 mg/kg IV, Rat 3): 918.784 ng·h/mL; AUClast ([2]; 5 mg/kg IV, Rat 3): 709.112 ng·h/mL; CL ([2]; 5 mg/kg IV, Rat 3): 90.700 mL/min/kg; Cmax ([2]; 5 mg/kg IV, Rat 3): 1544.041 ng/mL; MRT ([2]; 5 mg/kg IV, Rat 3): 5.524 h; Vss ([2]; 5 mg/kg IV, Rat 3): 78.131 L/kg; Vz ([2]; 5 mg/kg IV, Rat 3): 110.085 L/kg; t1/2 ([2]; 5 mg/kg IV, Rat 3): 14.022 h; Gamitrinib plasma concentration ([2]; 5 mg/kg IV, animal 1, 5 min): 622.199 ng/mL; Gamitrinib plasma concentration ([2]; 5 mg/kg IV, animal 1, 15 min): 180.951 ng/mL; Gamitrinib plasma concentration ([2]; 5 mg/kg IV, animal 1, 30 min): 106.381 ng/mL; Gamitrinib plasma concentration ([2]; 5 mg/kg IV, animal 1, 60 min): 71.445 ng/mL; Gamitrinib plasma concentration ([2]; 5 mg/kg IV, animal 1, 120 min): 46.657 ng/mL; Gamitrinib plasma concentration ([2]; 5 mg/kg IV, animal 1, 240 min): 36.816 ng/mL; Gamitrinib plasma concentration ([2]; 5 mg/kg IV, animal 1, 1440 min): 11.946 ng/mL; Gamitrinib plasma concentration ([2]; 5 mg/kg IV, animal 2, 5 min): 526.229 ng/mL; Gamitrinib plasma concentration ([2]; 5 mg/kg IV, animal 2, 15 min): 211.686 ng/mL; Gamitrinib plasma concentration ([2]; 5 mg/kg IV, animal 2, 30 min): 114.230 ng/mL; Gamitrinib plasma concentration ([2]; 5 mg/kg IV, animal 2, 60 min): 65.903 ng/mL; Gamitrinib plasma concentration ([2]; 5 mg/kg IV, animal 2, 120 min): 43.125 ng/mL; Gamitrinib plasma concentration ([2]; 5 mg/kg IV, animal 2, 240 min): 34.776 ng/mL; Gamitrinib plasma concentration ([2]; 5 mg/kg IV, animal 2, 1440 min): 10.511 ng/mL; Gamitrinib plasma concentration ([2]; 5 mg/kg IV, animal 3, 5 min): 674.432 ng/mL; Gamitrinib plasma concentration ([2]; 5 mg/kg IV, animal 3, 15 min): 128.663 ng/mL; Gamitrinib plasma concentration ([2]; 5 mg/kg IV, animal 3, 30 min): 67.204 ng/mL; Gamitrinib plasma concentration ([2]; 5 mg/kg IV, animal 3, 60 min): 55.991 ng/mL; Gamitrinib plasma concentration ([2]; 5 mg/kg IV, animal 3, 120 min): 29.914 ng/mL; Gamitrinib plasma concentration ([2]; 5 mg/kg IV, animal 3, 240 min): 28.905 ng/mL; Gamitrinib plasma concentration ([2]; 5 mg/kg IV, animal 3, 1440 min): 10.365 ng/mL; generation of metabolite 17-AG ([2]; rats, IV Gamitrinib 5 mg/kg, plasma): without generation of 17-AG; also recorded: did not generate detectable levels; also recorded: no generation of 17-AG; AUC0–24 ([3]; 3.33 mg/kg): 1740 ± 713 ng·h/mL; Cmax ([3]; 3.33 mg/kg): 560 ± 404 ng/mL; AUC0–24 ([3]; 6.25 mg/kg): 3290 ± 1090 ng·h/mL; Cmax ([3]; 6.25 mg/kg): 1260 ± 556 ng/mL; IC50 ([4]; NCI 60 cell-line screen, all lines): 160 to 29000 nM; IC50 ([4]; breast adenocarcinoma cell lines): 160 to 3300 nM; IC50 ([4]; colon adenocarcinoma cell lines): 350 to 29000 nM; IC50 ([4]; melanoma cell lines): 360 to 2700 nM; elimination rate constant (k) [5]: 0.041; half-life (t½) [5]: 0.278 h; intrinsic clearance (CLint) [5]: 3.30 mL/min/g
